Laboratory results from PubChem BioAssay (NCI).
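Exposure lasted 48 hours, with cells grown in 96-well plates and compounds tested at five concentrations. TGI: total growth inhibition.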

How the values were obtained:
Test in all cases: NCI anticancer screen, dose series, 48 h
UO-31 renal = tested on: UO-31 renal
NCI-H522 lung = tested on: NCI-H522 lung
HOP-62 NSCLC = tested on: HOP-62 NSCLC
KM12 colon = tested on: KM12 colon
SK-OV-3 ovarian = tested on: SK-OV-3 ovarian
LOX IMVI melanoma = tested on: LOX IMVI melanoma
SF-268 CNS = tested on: SF-268 CNS
HT29 colon = tested on: HT29 colon
HCT-116 colon = tested on: HCT-116 colon
HS 578T breast = tested on: HS 578T breast
IGROV1 ovarian = tested on: IGROV1 ovarian
NCI/ADR-RES ovarian = tested on: NCI/ADR-RES ovarian
HCC-2998 colon = tested on: HCC-2998 colon

Row | SMILES | TGI (UO-31 renal) [µM] | TGI (NCI-H522 lung) [µM] | TGI (HOP-62 NSCLC) [µM] | TGI (KM12 colon) [µM] | TGI (SK-OV-3 ovarian) [µM] | TGI (LOX IMVI melanoma) [µM] | TGI (SF-268 CNS) [µM] | TGI (HT29 colon) [µM] | TGI (HCT-116 colon) [µM] | TGI (HS 578T breast) [µM] | TGI (IGROV1 ovarian) [µM] | TGI (NCI/ADR-RES ovarian) [µM] | TGI (HCC-2998 colon) [µM]
1 | COc1cc(/C=C2\N=C(c3ccccc3)N(c3ccc(S(=O)(=O)Nc4nccs4)cc3)C2=O)ccc1O | > 100 | > 100 | > 100 | > 100 | > 100 | > 100 | > 100 | > 100 | > 100 | > 100 | > 100 | > 100 | 
2 | CN(OC(=O)CC(=O)c1ccccc1)C(=O)Cc1ccccc1 | > 100 | > 100 | > 100 | > 100 | > 100 | > 100 | > 100 | > 100 | > 100 |  | > 100 |  | 
3 | C=C[C@@]1(C)CC(=O)[C@]2(O)[C@@]3(C)[C@@H](OC(C)=O)CCC(C)(C)[C@@H]3[C@H](O)[C@H](OC(C)=O)[C@@]2(C)O1 | > 100 |  | > 100 | > 100 | > 100 | > 100 |  | > 100 | > 100 |  | > 100 | > 100 | > 100
4 | CCCC[P+](CCCC)(CCCC)C(C(=O)OC)C(C(=O)OC)=C1SC(C(=O)OC)=C(C(=O)OC)S1 (stereo unspecified) | > 100 | > 100 | > 100 |  | > 100 | > 100 | > 100 | > 100 | > 100 | > 100 | > 100 | > 100 | 
5 | CC(C)OP(=O)(OC(C)C)c1nn(-c2ccc([N+](=O)[O-])cc2)c(=N)s1 | > 100 | > 100 | > 100 | > 100 | > 100 |  | > 100 | > 100 | > 100 |  | > 100 |  | > 100
6 | Cc1c2[nH]c3ccc(Br)cc3c2c(C)c2[nH]ccc(=O)c12 | 24.2 | 28.5 | 28.6 | 25.6 |  | 32.7 | 32.6 | 30.2 | 28.2 |  |  |  | 31.1
7 | CCC(C)C1=C(O)[N+]2([O-])Oc3ccc(-c4c(O)c(O)c(-c5ccc(O)cc5)c(OC(C)=O)c4OC(C)=O)cc3OC2(C(C)CC)C(=O)N1O (stereo unspecified) | > 50 | > 50 |  | > 50 | > 50 | > 50 | > 50 | > 50 | > 50 |  | > 50 | > 50 | 
8 | CC[N+](C)(C)c1ccc(C(=C2C=CC(=[N+](C)C)C=C2)c2ccc(N(C)C)cc2)cc1 | 70.1 | 9.37 | 41.2 | 17.5 | 55 | 24.2 | 32.4 | 30.6 | 19.5 |  | 40.8 |  | 32.3
9 | O=c1[nH]nc(Cc2ccccc2)n1N=C1CCCCC1 | > 100 | > 100 | > 100 | > 100 |  | > 100 | > 100 | > 100 | > 100 | > 100 | > 100 | > 100 | 
10 | CCOC(=O)/C(=C\NC[C@@H](C)O)c1nc2ccccc2[nH]1 | 4.02 | > 100 | > 100 | > 100 | > 100 | > 100 | > 100 | > 100 | > 100 |  | > 100 | > 100 | > 100
11 | COC1C(=[N+]=[N-])C(=O)NC(=O)N1C1OC(COC(c2ccccc2)(c2ccccc2)c2ccccc2)C(O)C1O (stereo unspecified) | 32.2 | 31 | 41.1 | 30.5 | 49.6 | 30.1 | 35.7 | 35.3 | 34.9 |  | 47.5 |  | 32.8
12 | CC12CC(=O)OC(Cc3ccccc31)O2 (stereo unspecified) | > 100 | > 100 | > 100 | > 100 | > 100 | > 100 | > 100 | > 100 | > 100 |  | > 100 |  | > 100
13 | O=S(=O)(O)c1cc(S(=O)(=O)O)c2c(N=Nc3ccccc3)c(O)ccc2c1 | > 100 |  | > 100 | > 100 | > 100 | > 100 | > 100 | > 100 | > 100 | > 100 | > 100 | > 100 | 
14 | CCCOP1(=O)C=C(C)C(Cl)=C(C)C1 (stereo unspecified) | > 100 | 28.5 | > 100 | 43 | > 100 | 36.1 | 45.2 | 49.3 | 47.5 |  | > 100 |  | > 100
15 | C(=C\c1ccccc1)/Cn1nc(-c2ccccc2)nc1-c1cnccn1 | > 100 | > 100 | > 100 |  | > 100 | > 100 | > 100 | > 100 | > 100 |  | > 100 |  | > 100
16 | COC1/C=C/C(C)C(C(C)C(OC)C(C)CCC(=O)C(C)C(CC(=O)O)OC)OC(=O)/C=C/C=C(\C)CC(OC)C(OC)C2=CC(=O)O[C@@H](C(C)C(OC)CC(OC)/C=C/C(C)C(O)C1)[C@H]2O (stereo partly specified) | 0.15 |  | 0.468 | > 1.07 | 0.289 | > 1.07 | 0.157 | 0.0701 | 0.227 |  | 0.0297 | 0.47 | > 1.07
17 | O=C1CCCSCCCC(=O)CCCSCCC1 | > 100 | > 100 | > 100 | > 100 | > 100 | > 100 | > 100 | > 100 | > 100 |  | > 100 | > 100 | > 100
18 | COc1nc(N)nc2c1n(C)c[n+]2C | > 100 | > 100 | > 100 | > 100 | > 100 | > 100 | > 100 | > 100 | > 100 | > 100 | > 100 | > 100 | 
19 | CC1=CC(=C(c2ccc(N)c(C)c2)c2ccc(N)c(C)c2)C=CC1=N | 84.9 | 13.6 | 10.4 | 12.8 | 30.4 | 15.3 | 17.8 | 15.6 | 13.3 |  | 71.8 |  | 14.4
20 | CC(C)(C)c1ccc(Oc2ccc(C#N)c(C#N)c2)c(C(C)(C)C)c1 | > 77.7 | 60.6 | > 100 | > 100 | > 100 | > 54.6 | > 100 | > 100 | > 60.1 |  | > 100 |  | > 100
21 | CCCCC1=C(C(=O)N2CCOCC2)C2(OCCO2)C1Cl (stereo unspecified) | > 100 | 99.3 | > 100 | 41.5 | > 100 | > 100 | > 100 | 78.6 | > 100 | > 100 | > 100 | > 100 | 
22 | COc1cccc2c1C(=O)c1c(O)c3c(c(O)c1C2=O)CC(O)(C(C)=O)CC3OC1CC([N+](C)(C)C)C(O)C(C)O1 (stereo unspecified) | > 100 | > 100 | > 100 | > 100 | > 100 | > 100 | > 100 | > 100 | > 100 |  | > 100 |  | > 100
23 | Cc1ccc(-n2nnc3c(NNc4ccccc4)n[nH]c(=O)c32)cc1 |  | > 100 | > 100 | > 100 |  | > 100 |  | > 100 | > 100 |  |  | > 100 | > 100
24 | O=c1ccc(-c2ccc(-n3ccnc3)cc2)nn1CCO | > 100 | > 100 | > 100 | > 100 | > 100 |  | > 100 | > 100 | > 100 | > 100 | > 100 |  | > 100
25 | CN1NC2=NCCN=C3NN(C)C(=NCCN=C1S2)S3 |  | > 100 | > 100 | > 100 |  | > 100 | > 100 | > 100 | > 100 |  | > 100 |  | 
26 | CC1CC/C(=C\c2ccc(Cl)cc2)C(=O)/C1=C\c1ccc(Cl)cc1 (stereo unspecified) | > 100 |  | 57.9 | 41.5 | > 100 | > 100 | > 100 | > 100 | > 100 | 93.8 | 46.9 |  | 
27 | O=S(=O)(O)c1cccc2ccc(O)c(N=Nc3ccc(S(=O)(=O)c4ccc(N=Nc5c(O)ccc6cccc(S(=O)(=O)O)c56)cc4)cc3)c12 | > 100 | > 100 | > 100 | > 100 | > 100 |  | > 100 | > 100 | > 100 | > 100 | > 100 | > 100 | 
28 | COC(=O)/C=C/COCC1C2CCC(=O)C21 (stereo unspecified) | > 100 | > 100 | > 100 | > 100 | > 100 | > 100 | > 100 | > 100 | > 100 |  | > 100 | > 100 | > 100
29 | COC1=C(OC)C(=O)c2cc(SC)c(=O)c(SC)cc2C1=O | 40.5 | 34.9 | 31.2 | > 100 | > 100 | 16.6 | 28.3 | > 100 | 46.3 |  | > 100 |  | > 100
